# Data from PubChem BioAssay AID1963852 (Molecular Pharmacology Branch, DTP, NCI, 2024).
# Test system: 282377-053-R-J1-PDC complex spheroid viability
# Experiment: Anticancer human tumor 282377-053-R-J1-PDC patient-derived colon adenocarcinoma cell line growth inhibition [POLQ]
# Details: for IC50: curve of first compound; for viability, T/C: stronger effect = lower value
# Method in brief: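 Patient-derived tumour cells were co-cultured with HUVEC and mesenchymal stem cells as multicellular spheroids at 37 °C. They were treated with POLQ inhibitors (novobiocin, ART-558, RP6685) alone or combined with other agents. Top concentrations were at or near clinical Cmax (otherwise 10 microM; SN-38 at 1 microM), decreasing in half-log steps.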
# [1] = second compound 0.0316 µM, first compound 0.0316 µM
# [2] = second compound 0.0316 µM, first compound 0.1 µM
# [3] = second compound 0.0316 µM, first compound 0.316 µM
# [4] = second compound 0.0316 µM, first compound 1 µM
# [5] = second compound 0.0316 µM, first compound 3.16 µM
# [6] = second compound 0.0316 µM, first compound 10 µM
# [7] = second compound 0.1 µM, first compound 0.0316 µM
# [8] = second compound 0.1 µM, first compound 0.1 µM
# [9] = second compound 0.1 µM, first compound 0.316 µM
# [10] = second compound 0.1 µM, first compound 1 µM
# [11] = second compound 0.1 µM, first compound 3.16 µM
# [12] = second compound 0.1 µM, first compound 10 µM
# [13] = second compound 0.316 µM, first compound 0.0316 µM
# [14] = second compound 0.316 µM, first compound 0.1 µM
# [15] = second compound 0.316 µM, first compound 0.316 µM
# [16] = second compound 0.316 µM, first compound 1 µM
# [17] = second compound 0.316 µM, first compound 3.16 µM
# [18] = second compound 0.316 µM, first compound 10 µM
# [19] = second compound 1 µM, first compound 0.0316 µM
# [20] = second compound 1 µM, first compound 0.1 µM
# [21] = second compound 1 µM, first compound 0.316 µM
# [22] = second compound 1 µM, first compound 1 µM
# [23] = second compound 1 µM, first compound 3.16 µM
# [24] = second compound 1 µM, first compound 10 µM
# [25] = second compound 3.16 µM, first compound 0.0316 µM
# [26] = second compound 3.16 µM, first compound 0.1 µM
# [27] = second compound 3.16 µM, first compound 0.316 µM
# [28] = second compound 3.16 µM, first compound 1 µM
# [29] = second compound 3.16 µM, first compound 3.16 µM
# [30] = second compound 3.16 µM, first compound 10 µM
# [31] = second compound 10 µM, first compound 0.0316 µM
# [32] = second compound 10 µM, first compound 0.1 µM
# [33] = second compound 10 µM, first compound 0.316 µM
# [34] = second compound 10 µM, first compound 1 µM
# [35] = second compound 10 µM, first compound 3.16 µM
# [36] = second compound 10 µM, first compound 10 µM
# 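Also: spheroids exposed to compounds for seven days.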
# 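For viability, T/C in this document: 100% = DMSO vehicle control viability.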
smiles,measurement,setting,value
CC1COCCN1c1cc(-c2ccnn2C)c2ccnc(-c3ccn[nH]3)c2n1 (stereo not drawn) + Cc1cccc(N(C)C(=O)C2C(O)CCN2c2nc(C)cc(C(F)(F)F)c2C#N)c1,IC50,second compound 0.0316 µM,381 nM
same,IC50,second compound 0.1 µM,551 nM
same,IC50,second compound 0.316 µM,289 nM
same,IC50,second compound 1 µM,362 nM
same,IC50,second compound 3.16 µM,479 nM
same,IC50,second compound 10 µM,634 nM
same,"viability, T/C",[1],91.3%
same,"viability, T/C",[2],86.4%
same,"viability, T/C",[3],52.6%
same,"viability, T/C",[4],32.6%
same,"viability, T/C",[5],26.3%
same,"viability, T/C",[6],24.5%
same,"viability, T/C",[7],81.3%
same,"viability, T/C",[8],80.9%
same,"viability, T/C",[9],60.6%
same,"viability, T/C",[10],37.4%
same,"viability, T/C",[11],29.4%
same,"viability, T/C",[12],23%
same,"viability, T/C",[13],97%
same,"viability, T/C",[14],90.2%
same,"viability, T/C",[15],44.6%
same,"viability, T/C",[16],38.4%
same,"viability, T/C",[17],24.9%
same,"viability, T/C",[18],21.9%
same,"viability, T/C",[19],93.5%
same,"viability, T/C",[20],68.5%
same,"viability, T/C",[21],54.8%
same,"viability, T/C",[22],36.2%
same,"viability, T/C",[23],27.2%
same,"viability, T/C",[24],22.7%
same,"viability, T/C",[25],83.9%
same,"viability, T/C",[26],70.4%
same,"viability, T/C",[27],61.5%
same,"viability, T/C",[28],33.1%
same,"viability, T/C",[29],29.2%
same,"viability, T/C",[30],22.5%
same,"viability, T/C",[31],78.8%
same,"viability, T/C",[32],71%
same,"viability, T/C",[33],71.6%
same,"viability, T/C",[34],35.8%
same,"viability, T/C",[35],32.2%
same,"viability, T/C",[36],20.8%
CCCS(=O)(=O)Nc1ccc(F)c(C(=O)c2c[nH]c3ncc(-c4ccc(Cl)cc4)cc23)c1F + Cc1cccc(N(C)C(=O)C2C(O)CCN2c2nc(C)cc(C(F)(F)F)c2C#N)c1,IC50,second compound 0.0316 µM,> 10000 nM
same,IC50,second compound 0.1 µM,> 10000 nM
same,IC50,second compound 0.316 µM,> 10000 nM
same,IC50,second compound 1 µM,> 10000 nM
same,IC50,second compound 3.16 µM,> 10000 nM
same,IC50,second compound 10 µM,> 10000 nM
same,"viability, T/C",[1],95.1%
same,"viability, T/C",[2],77.8%
same,"viability, T/C",[3],73.6%
same,"viability, T/C",[4],67.4%
same,"viability, T/C",[5],76.2%
same,"viability, T/C",[6],64.3%
same,"viability, T/C",[7],91.8%
same,"viability, T/C",[8],88.4%
same,"viability, T/C",[9],66.3%
same,"viability, T/C",[10],73.2%
same,"viability, T/C",[11],75.7%
same,"viability, T/C",[12],69.7%
same,"viability, T/C",[13],92.5%
same,"viability, T/C",[14],85.6%
same,"viability, T/C",[15],73%
same,"viability, T/C",[16],77.5%
same,"viability, T/C",[17],70%
same,"viability, T/C",[18],61.8%
same,"viability, T/C",[19],86.9%
same,"viability, T/C",[20],91.9%
same,"viability, T/C",[21],90.5%
same,"viability, T/C",[22],70.3%
same,"viability, T/C",[23],68%
same,"viability, T/C",[24],61.4%
same,"viability, T/C",[25],92.1%
same,"viability, T/C",[26],92.9%
same,"viability, T/C",[27],72.1%
same,"viability, T/C",[28],64.3%
same,"viability, T/C",[29],61.5%
same,"viability, T/C",[30],65%
same,"viability, T/C",[31],81.6%
same,"viability, T/C",[32],81.2%
same,"viability, T/C",[33],77.1%
same,"viability, T/C",[34],62.8%
same,"viability, T/C",[35],73.5%
same,"viability, T/C",[36],58.4%
COc1cccc(OCCCN)c1-c1cc(Nc2cnc(C#N)cn2)n[nH]1 + Cc1cccc(N(C)C(=O)C2C(O)CCN2c2nc(C)cc(C(F)(F)F)c2C#N)c1,IC50,second compound 0.0316 µM,632 nM
same,IC50,second compound 0.1 µM,559 nM
same,IC50,second compound 0.316 µM,> 1000 nM
same,IC50,second compound 1 µM,545 nM
same,IC50,second compound 3.16 µM,300 nM
same,IC50,second compound 10 µM,395 nM
same,"viability, T/C","second compound 0.0316 µM, first compound 0.00316 µM",102%
same,"viability, T/C","second compound 0.0316 µM, first compound 0.01 µM",98.5%
same,"viability, T/C",[1],85.8%
same,"viability, T/C",[2],74.5%
same,"viability, T/C",[3],60.9%
same,"viability, T/C",[4],43.1%
same,"viability, T/C","second compound 0.1 µM, first compound 0.00316 µM",100%
same,"viability, T/C","second compound 0.1 µM, first compound 0.01 µM",95.4%
same,"viability, T/C",[7],97%
same,"viability, T/C",[8],73.4%
same,"viability, T/C",[9],60%
same,"viability, T/C",[10],41.5%
same,"viability, T/C","second compound 0.316 µM, first compound 0.00316 µM",91%
same,"viability, T/C","second compound 0.316 µM, first compound 0.01 µM",88.5%
same,"viability, T/C",[13],86.1%
same,"viability, T/C",[14],64.2%
same,"viability, T/C",[15],55.7%
same,"viability, T/C",[16],49.2%
same,"viability, T/C","second compound 1 µM, first compound 0.00316 µM",109%
same,"viability, T/C","second compound 1 µM, first compound 0.01 µM",90.2%
same,"viability, T/C",[19],72.9%
same,"viability, T/C",[20],59%
same,"viability, T/C",[21],57.3%
same,"viability, T/C",[22],45.1%
same,"viability, T/C","second compound 3.16 µM, first compound 0.00316 µM",95.9%
same,"viability, T/C","second compound 3.16 µM, first compound 0.01 µM",102%
same,"viability, T/C",[25],84.7%
same,"viability, T/C",[26],65.7%
same,"viability, T/C",[27],51.8%
same,"viability, T/C",[28],39.4%
same,"viability, T/C","second compound 10 µM, first compound 0.00316 µM",85.3%
same,"viability, T/C","second compound 10 µM, first compound 0.01 µM",90.1%
same,"viability, T/C",[31],72.3%
same,"viability, T/C",[32],61.8%
same,"viability, T/C",[33],55.8%
same,"viability, T/C",[34],39.6%
O=C(c1cc(Cc2n[nH]c(=O)c3ccccc23)ccc1F)N1CCN(C(=O)C2CC2)CC1 + Cc1cccc(N(C)C(=O)C2C(O)CCN2c2nc(C)cc(C(F)(F)F)c2C#N)c1,IC50,second compound 0.0316 µM,> 10000 nM
same,IC50,second compound 0.1 µM,> 10000 nM
same,IC50,second compound 0.316 µM,> 10000 nM
same,IC50,second compound 1 µM,> 10000 nM
same,IC50,second compound 3.16 µM,> 10000 nM
same,IC50,second compound 10 µM,> 10000 nM
same,"viability, T/C",[1],104%
same,"viability, T/C",[2],107%
same,"viability, T/C",[3],109%
same,"viability, T/C",[4],107%
same,"viability, T/C",[5],106%
same,"viability, T/C",[6],80.7%
same,"viability, T/C",[7],110%
same,"viability, T/C",[8],108%
same,"viability, T/C",[9],112%
same,"viability, T/C",[10],90.9%
same,"viability, T/C",[11],116%
same,"viability, T/C",[12],80.4%
same,"viability, T/C",[13],83.3%
same,"viability, T/C",[14],94%
same,"viability, T/C",[15],101%
same,"viability, T/C",[16],87.3%
same,"viability, T/C",[17],94%
same,"viability, T/C",[18],85.3%
same,"viability, T/C",[19],100%
same,"viability, T/C",[20],92.2%
same,"viability, T/C",[21],108%
same,"viability, T/C",[22],111%
same,"viability, T/C",[23],107%
same,"viability, T/C",[24],95.3%
same,"viability, T/C",[25],92.2%
same,"viability, T/C",[26],117%
same,"viability, T/C",[27],104%
same,"viability, T/C",[28],88.6%
same,"viability, T/C",[29],101%
same,"viability, T/C",[30],101%
same,"viability, T/C",[31],84.6%
same,"viability, T/C",[32],110%
same,"viability, T/C",[33],90.4%
same,"viability, T/C",[34],110%
same,"viability, T/C",[35],87%
same,"viability, T/C",[36],107%
